Results as given in patent publication US6423730B1, “Method to control termites” (Dow AgroSciences LLC, priority 1999, dated 2002).

Experiments:
Reticulitermes lalvipes = assay: Treated filter pad and pine wood chip petri dish termite kill test; format: in vivo; details: 8 days after treatment, 13° C.
Method: Subterranean worker termites, Reticulitermes lalvipes, were purchased from Carolina Biological Supply Co. The insects were stored with their shipping material, decayed wood chips and moist paper towels, in an unlit growth chamber at 13° C. for three days prior to start of the test. This delay was to acclimate the termites to the test conditions as well as to eliminate weak individuals.
The compounds tested, 100 mg each, were dissolved in 10 mL of pure ethanol (dehydrated, 200 proof) to provide a solution of 10,000 ppm. The solution was serial diluted by 10× to achieve dilutions of 1,000, 100, 10, and 1 ppm. A pure cellulose fiber filter pad was soaked with 1 mL of each test sample and placed into a Falcon petri dish (50×9 mm sterile polystyrene). In addition, a pine wood chip, approximately 12×12×4 mm was dipped into the test solution for 30 seconds and placed on the filter paper. Solvent from the treated filters and wood chips was then allowed to evaporate for 24 hours. The next day, five termites were placed on the filter pad and the upper lid of the petri plate was secured. Three replications were used for each treatment.
The termites in the petri dishes were returned to the growth chamber at 13° C. The humidity was high enough to allow for condensation on the upper plate surface, which provided water for the termites. The petri dishes were briefly removed from the chamber at 2, 4, and 8 days after treatment to count the number of live termites. Data was expressed as the percentage of control (kill) of termites.

Reticulitermes = assay: AWPA E1-97 treated southern yellow pine wood block termite test; format: in vivo; details: treated southern yellow pine wood blocks, four weeks
Method: Compounds of Formula I were evaluated using standard evaluation methodology as prescribed by the American Wood Preservers Association Standard AWPA E1-97, incorporated herein by reference, using a species of the destructive termite, Reticulitermes.
In this test replicate containers containing damp sand and southern yellow pine wood blocks treated with the compound are used. Termites are introduced into the test container and after four weeks the containers are disassembled and the wood blocks are evaluated for termite damage. Termite mortality is also evaluated.

SMILES	Control (% kill at 8 days) (Reticulitermes lalvipes; dose 1 ppm) [%]	Control (% kill at 8 days) (Reticulitermes lalvipes; dose 10 ppm) [%]	Control (% kill at 8 days) (Reticulitermes lalvipes; dose 100 ppm) [%]	Control (% kill at 8 days) (Reticulitermes lalvipes; dose 1,000 ppm) [%]	Control (% kill at 8 days) (Reticulitermes lalvipes; dose 10,000 ppm) [%]	Minimum Retention Preventing Termite Attack (Reticulitermes) [kg/m^3]
O=C(Nc1cc(Cl)c(Cl)c(Cl)c1)c1sc(C(F)(F)F)nc1C(F)(F)F [Compound 4]	77	47	33	73	100	
O=C(Nc1cc(Cl)ccc1Cl)c1sc(C(F)(F)F)nc1C(F)(F)F [Compound 9]	27	40	20	53	100	
O=C(Nc1cc(Cl)cc(Cl)c1)c1sc(C(F)(F)F)nc1C(F)(F)F [Compound 11]	0	7	13	13	67	
O=C(Nc1c(Cl)cccc1Cl)c1sc(C(F)(F)F)nc1C(F)(F)F [Compound 10]	7	0	0	67	73	
O=C(Nc1ccc(Cl)cc1Cl)c1sc(C(F)(F)F)nc1C(F)(F)F [Compound 8]	7	0	0	20	100	
O=C(Nc1cc(Cl)c(Cl)cc1Cl)c1sc(C(F)(F)F)nc1C(F)(F)F [Compound 7]	73	60	87	100	100	
O=C(Nc1ccc(Cl)c(Cl)c1Cl)c1sc(C(F)(F)F)nc1C(F)(F)F [Compound 6]	33	27	53	100	100	
O=C(Nc1c(Br)cc(OC(F)(F)F)cc1Br)c1sc(C(F)(F)F)nc1C(F)(F)F [Compound 5]						0.768
CCOP(=S)(OCC)Oc1nc(Cl)c(Cl)cc1Cl [Comparative, chlorpyrifos, reference compound]						>0.160
